This is an account of results in US10369131B2, “Ultrapure tetrahydrocannabinol-11-oic acids” (Corbus Pharmaceuticals, Inc., priority 2013, dated 2019).

Assay [1] relates to CD-1 mice, arachidonic acid induced paw edema. In words: Arachidonic acid induced paw edema model. The class given is in vivo, mouse. To be noted: oral 5, 50 and 500 ug/kg, 90 min before arachidonic acid, paw volume 45 min after injection. How it is done: CD-1 Mice (Female) were randomly allocated to experimental groups and allowed to acclimatise for one week. Prior to test compound administration, baseline right hind paw volume was measured under gas (isoflurane) anaesthesia using a water displacement device (plethysmometer, Stoelting). On Day 0, ultrapure AJA suspended in 2% MC or vehicle was administered at 0, 5, 50 and 500 ug/kg by oral gavage. Ninety minutes after treatment administration, the animals were given 10 microliters of a 100 mg/ml arachidonic acid solution in 5% ethanol by subcutaneous injection into the plantar aspect of the right hind paw. A control group of animals (Group 1) was administered with an equivalent volume of a 5% ethanol solution. The left hind paws were not injected. Intra-plantar injections were performed under gas anaesthesia. 45 minutes after the intra-plantar injections right hind paw volume was measured under gas anaesthesia using a plethysmometer.

The next assay relates to HL-60 cells. The assay is described as follows: PGJ synthesis in HL-60 cells (ELISA). Format: cell-based. To be noted: TNFα 10 nM, with CB2 or CB1 antagonist, N=4. The method, then: The CB2 antagonist SR144528 reduced ultrapure AJA-induced PGJ synthesis in HL60 immune system cells at low concentrations (squares). […] DMSO control (open circles). Treatments of cells was carried out in 48 well plates with 20,000 cells/500 μl RPMI/FCS media/well. Cells were incubated for 20 hrs at 37° C. and 5% CO2. Media was changed to 500 μl of serum free RPMI and TNFα (10 nM) added. […] N=4.

Another assay addresses hCB2 receptor (Homo sapiens, UniProt P34972). The assay is described as follows: biochemical.
The next assay deals with CB1 receptor (Homo sapiens, UniProt P21554). The assay is described as follows: CB receptor radioligand binding assay, human CB1. Further details: expressed in transfected cells; host or cells: HEK-293T. How it is done: Membrane preparation—HEK-293T cells were cultured according to ATCC (Manassas, Va.) guidelines and transfected with human CB1 cDNA (Genbank X54937) or CB2 cDNA (Genbank X74328), operably linked to the SV40 promoter, using Polyfect (Qiagen, Valencia, Calif.) or Fugene (Roche, Nutley, N.J.) according to manufacturer's instructions. 48 h after transfection, cells were harvested in ice cold membrane buffer (20 mM HEPES, 6 mM MgCl2, 1 mM EDTA, pH 7.2) using a cell scraper. Cells were transferred to a nitrogen cavitation chamber and a pressure of […] was applied for 30 min. The pressure was released and the cell debris was collected and centrifuged at 1000 g at 4° C. for 10 min. The supernatant was collected and the spin was repeated until the supernatant was free of precipitate. […] The membrane concentration was determined using a BioRad (Hercules, Calif.) protein assay dye reagent according to manufacturer's instructions. […]
CB1 receptor, sequence (P21554 whole entry): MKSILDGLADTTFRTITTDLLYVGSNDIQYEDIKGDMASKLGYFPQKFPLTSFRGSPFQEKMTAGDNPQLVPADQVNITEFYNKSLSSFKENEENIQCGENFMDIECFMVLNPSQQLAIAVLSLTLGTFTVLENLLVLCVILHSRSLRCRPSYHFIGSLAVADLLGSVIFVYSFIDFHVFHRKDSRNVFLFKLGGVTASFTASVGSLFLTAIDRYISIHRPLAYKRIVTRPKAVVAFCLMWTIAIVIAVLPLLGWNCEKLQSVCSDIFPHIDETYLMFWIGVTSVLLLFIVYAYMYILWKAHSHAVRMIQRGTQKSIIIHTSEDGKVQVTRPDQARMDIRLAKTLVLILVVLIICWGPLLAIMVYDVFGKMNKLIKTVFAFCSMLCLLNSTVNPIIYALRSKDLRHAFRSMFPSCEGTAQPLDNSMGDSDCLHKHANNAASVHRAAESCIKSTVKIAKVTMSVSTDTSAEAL
Membranes were incubated for 2 hr at room temperature, then filtered onto a presoaked (with 0.1% polyethylenimine for 1 to 2 hr) 96 well GF/B filterplate (Packard Bioscience, Shelton, Conn.) and washed with […] ice cold wash buffer (25 mM HEPES, 1 mM CaCl2, 5 mM MgCl2, 0.25M NaCl) using a Filtermate 196 Harvester (Packard Instruments, Downers Grove, Ill.). […] Plates were counted on a Topcount NXT (Packard, Shelton, Conn.). […]

hCB2 receptor, sequence (P34972 whole entry): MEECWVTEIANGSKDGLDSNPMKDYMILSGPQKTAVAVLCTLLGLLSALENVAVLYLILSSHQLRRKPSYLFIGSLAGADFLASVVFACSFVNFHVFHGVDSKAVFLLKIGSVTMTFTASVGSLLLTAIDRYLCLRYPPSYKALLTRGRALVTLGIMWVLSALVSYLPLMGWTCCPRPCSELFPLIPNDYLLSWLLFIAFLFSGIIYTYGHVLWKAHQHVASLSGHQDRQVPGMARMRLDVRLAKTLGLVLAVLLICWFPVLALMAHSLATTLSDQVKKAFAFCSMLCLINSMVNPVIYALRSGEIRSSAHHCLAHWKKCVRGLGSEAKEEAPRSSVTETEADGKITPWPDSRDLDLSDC
From the text for hCB2 receptor: When the CB1 or CB2 receptor is activated by an agonist, the affinity of the G protein alpha subunit increases with respect to GTP vs. GDP. As a consequence, GDP is displaced from the G protein and GTP or GTPγS binds. If a radioactive label, such as [^35S], is attached to the GTPγS molecule, then the formation of the G protein/[^35S]GTPγS complex can be directly measured using liquid scintillation spectrophotometry.
The CB1 and CB2 receptor assays involve membrane preparations purchased from Perkin Elmer (Waltham, Mass.) isolated from a HEK-293 expression system. G-protein coupled signal transduction (GTP-γ-[35S]) assays of test compounds were conducted in an incubation mixture consisting of a test compound (250 nM-1 mM), GDP (20 μM), GTP-γ-[35S] (100 pM), and the hCB1 and hCB2 membrane preparations (0.4 pM) in a total volume of 0.4 mL of assay buffer (50 mM TRIS-HCl, pH 7.4, 1 mM EDTA, 100 mM NaCl, 5 mM MgCl2, 0.5% (w/v) BSA). Nonspecific binding was determined in the presence of 100 μM unlabeled GTP-γ-S, and basal binding was determined in the absence of drug. Duplicate samples were incubated for 1 h at 30° C., and the bound complex was filtered from the reaction mixture as described previously and counted in a liquid scintillation counter. Specific binding was calculated by subtracting nonspecific binding from total binding and dividing by the total basal binding minus nonspecific binding. Data were plotted and analyzed with GraphPad Prism (GraphPad Software, Inc., San Diego, Calif.).

One may read the EC50 as the midpoint of the concentration-response curve. Lower therefore signals a more potent agent. For orientation: Ki means a measure of affinity in units of concentration, obtained from inhibition or displacement. Take `CCCCCCC(C)(C)c1cc(O)c2c(c1)OC(C)(C)[C@@H]1CC=C(C(=O)O)C[C@@H]21` [JBT-101, (6aR,10aR)-3-(1′,1′-dimethylheptyl)-Δ8-tetrahydro-cannabinol-9-carboxylic acid]: the results for the “inhibition of paw volume / inflammation” value in assay [1] and in assay [1] (listed as ultrapure AJA) were “effective at doses well below the doses in which CB1 activity is observed” and “effective at all doses tested”, respectively. Moreover, the “stimulation of PGJ in HL-60 cells” value in the assay on HL-60 cells is reported as “CB2 specificity”. Moreover, the EC50 at hCB2 receptor (hCB2 EC50 Mean (±SEM), GTP-γ-35S turnover, mean of 4 repetitions) was found to be 1020 ± 92 nM; on hCB2 receptor (hCB2 EC50 Rep 1, GTP-γ-35S turnover, replicate 1) it was 930 nM; at hCB2 receptor (hCB2 EC50 Rep 2, GTP-γ-35S turnover, replicate 2) it was 815 nM; at hCB2 receptor (hCB2 EC50 Rep 3, GTP-γ-35S turnover, replicate 3), 1230 nM; on hCB2 receptor (hCB2 EC50 Rep 4, GTP-γ-35S turnover, replicate 4), 1100 nM. Further, the inhibition constant Ki at CB1 receptor is 628 ± 6 nM.
